Measurements from ChEMBL document CHEMBL1201862, “PubChem BioAssay data set” (2004).
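Protocol summary: plate cells (96-well), add compound at 5 concentrations, incubate 48 h, interpolate endpoints linearly. The concentration for 50% growth inhibition is given as GI50.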 Active and inactive are the calls of the source. Rule as the data show it: active = GI50 up to about 1.1 µM and inactive = higher.

What was measured:
Test in all cases: growth of human tumour cells (NCI), 48 h
786-0 = test system: 786-0
A498 = test system: A498
A549 = test system: A549
ACHN = test system: ACHN
BT-549 = test system: BT-549
CAKI-1 = test system: CAKI-1
CCRF-CEM = test system: CCRF-CEM
COLO 205 = test system: COLO 205
DU-145 = test system: DU-145
EKVX = test system: EKVX
HCC 2998 = test system: HCC 2998
HCT-116 = test system: HCT-116
HCT-15 = test system: HCT-15
HL-60 = test system: HL-60
HOP-62 = test system: HOP-62
HOP-92 = test system: HOP-92
HT-29 = test system: HT-29
Hs-578T = test system: Hs-578T
IGROV-1 = test system: IGROV-1
K562 = test system: K562
KM12 = test system: KM12
LOX IMVI = test system: LOX IMVI
M14 = test system: M14
MCF7 = test system: MCF7
MDA-MB-231 = test system: MDA-MB-231
MDA-MB-435 = test system: MDA-MB-435
MDA-N = test system: MDA-N
MOLT-4 = test system: MOLT-4
Malme-3M = test system: Malme-3M
NCI-H226 = test system: NCI-H226
NCI-H23 = test system: NCI-H23
NCI-H460 = test system: NCI-H460
NCI-H522 = test system: NCI-H522
NCI/ADR-RES = test system: NCI/ADR-RES
OVCAR-3 = test system: OVCAR-3
OVCAR-4 = test system: OVCAR-4
OVCAR-5 = test system: OVCAR-5
OVCAR-8 = test system: OVCAR-8
PC-3 = test system: PC-3
RPMI-8226 = test system: RPMI-8226
RXF 393 = test system: RXF 393
SF-268 = test system: SF-268
SF-295 = test system: SF-295
SF-539 = test system: SF-539
SK-MEL-28 = test system: SK-MEL-28
SK-MEL-2 = test system: SK-MEL-2
SK-MEL-5 = test system: SK-MEL-5
SK-OV-3 = test system: SK-OV-3
SN12C = test system: SN12C
SNB-19 = test system: SNB-19
SR = test system: SR
SW-620 = test system: SW-620
T47D = test system: T47D
TK-10 = test system: TK-10
U-251 = test system: U-251
UACC-257 = test system: UACC-257
UACC-62 = test system: UACC-62
UO-31 = test system: UO-31

Q: Which GI50 (786-0) does the source give for `N#Cc1c(N)nc2[nH]nc(N)c2c1-c1ccccc1` here?
A: 16.8 µM (inactive)

Q: And the GI50 (A498)?
A: 1.61 µM (inactive)

Q: What about the GI50 (A549) of the same compound?
A: 6.58 µM (inactive)

Q: What about the GI50 (ACHN) of the same compound?
A: 4.63 µM (inactive)

Q: And the GI50 (BT-549)?
A: 7.43 µM (inactive)

Q: What about the GI50 (CAKI-1) of the same compound?
A: 3.2 µM (inactive)

Q: And the GI50 (CCRF-CEM)?
A: 16.4 µM (inactive)

Q: And the GI50 (COLO 205)?
A: 5.65 µM (inactive)

Q: And the GI50 (DU-145)?
A: 8.11 µM (inactive)

Q: What about the GI50 (EKVX) of the same compound?
A: 7.74 µM (inactive)

Q: What about the GI50 (HCC 2998) of the same compound?
A: 16.5 µM (inactive)

Q: And the GI50 (HCT-116)?
A: 7.29 µM (inactive)

Q: What about the GI50 (HCT-15) of the same compound?
A: 5.41 µM

Q: And the GI50 (HL-60)?
A: 11.2 µM (inactive)

Q: What about the GI50 (HOP-62) of the same compound?
A: 27.5 µM (inactive)

Q: What about the GI50 (HOP-92) of the same compound?
A: 2.56 µM (inactive)

Q: What about the GI50 (HT-29) of the same compound?
A: 12.2 µM (inactive)

Q: What about the GI50 (Hs-578T) of the same compound?
A: 5.3 µM (inactive)

Q: What about the GI50 (IGROV-1) of the same compound?
A: 2.8 µM (inactive)

Q: What about the GI50 (K562) of the same compound?
A: > 41.8 µM (inactive)

Q: What about the GI50 (KM12) of the same compound?
A: 6.4 µM (inactive)

Q: What about the GI50 (LOX IMVI) of the same compound?
A: 3.89 µM (inactive)

Q: And the GI50 (M14)?
A: 7.03 µM (inactive)

Q: And the GI50 (MCF7)?
A: 4.59 µM (inactive)

Q: What about the GI50 (MDA-MB-231) of the same compound?
A: 4.48 µM (inactive)

Q: And the GI50 (MDA-MB-435)?
A: 6.93 µM (inactive)

Q: And the GI50 (MDA-N)?
A: 6.04 µM (inactive)

Q: What about the GI50 (MOLT-4) of the same compound?
A: 4.04 µM (inactive)

Q: What about the GI50 (Malme-3M) of the same compound?
A: 4.73 µM (inactive)

Q: What about the GI50 (NCI-H226) of the same compound?
A: 11.8 µM (inactive)

Q: What about the GI50 (NCI-H23) of the same compound?
A: 6.49 µM (inactive)

Q: And the GI50 (NCI-H460)?
A: 4.28 µM (inactive)

Q: And the GI50 (NCI-H522)?
A: 3.72 µM (inactive)

Q: What about the GI50 (NCI/ADR-RES) of the same compound?
A: 15 µM (inactive)

Q: What about the GI50 (OVCAR-3) of the same compound?
A: 3.72 µM (inactive)

Q: What about the GI50 (OVCAR-4) of the same compound?
A: 11.3 µM (inactive)

Q: What about the GI50 (OVCAR-5) of the same compound?
A: 14.9 µM (inactive)

Q: And the GI50 (OVCAR-8)?
A: 12.5 µM (inactive)

Q: What about the GI50 (PC-3) of the same compound?
A: 5.13 µM (inactive)

Q: What about the GI50 (RPMI-8226) of the same compound?
A: > 24.3 µM (inactive)

Q: What about the GI50 (RXF 393) of the same compound?
A: 3.78 µM (inactive)

Q: What about the GI50 (SF-268) of the same compound?
A: 10.2 µM (inactive)

Q: What about the GI50 (SF-295) of the same compound?
A: 6.04 µM (inactive)

Q: And the GI50 (SF-539)?
A: 7.16 µM (inactive)

Q: What about the GI50 (SK-MEL-28) of the same compound?
A: 14.2 µM (inactive)

Q: What about the GI50 (SK-MEL-2) of the same compound?
A: 3.4 µM (inactive)

Q: What about the GI50 (SK-MEL-5) of the same compound?
A: 8.24 µM (inactive)

Q: And the GI50 (SK-OV-3)?
A: 4.02 µM (inactive)

Q: And the GI50 (SN12C)?
A: 5.33 µM (inactive)

Q: And the GI50 (SNB-19)?
A: 16.1 µM (inactive)

Q: What about the GI50 (SR) of the same compound?
A: > 20.4 µM (inactive)

Q: And the GI50 (SW-620)?
A: 26.9 µM (inactive)

Q: And the GI50 (T47D)?
A: 0.452 µM (active)

Q: And the GI50 (TK-10)?
A: 5.6 µM (inactive)

Q: And the GI50 (U-251)?
A: 21.2 µM (inactive)

Q: What about the GI50 (UACC-257) of the same compound?
A: 21.1 µM (inactive)

Q: And the GI50 (UACC-62)?
A: 2.72 µM (inactive)

Q: And the GI50 (UO-31)?
A: 3.56 µM (inactive)
